Results taken from BindingDB's records for doi:10.1016/j.bmcl.2019.126678 (Vanderbilt University, 2019).

Columns and labels:
[1] = molecular target: Muscarinic acetylcholine receptor M4 (human) (UniProt P08173); assay: Positive allosteric modulation of human M4 receptor expressed in CHO cells co-expressing Gqi5 assessed as increase in acetylcholine-induced calcium mobilization incubated with EC20 ACh for 140 secs and subsequent EC80 Ach addition further incubated for 120 secs by Fluo-4-AM dye based fluorescence assay
Chain of Muscarinic acetylcholine receptor M4 (human) (P08173 whole entry, looked up): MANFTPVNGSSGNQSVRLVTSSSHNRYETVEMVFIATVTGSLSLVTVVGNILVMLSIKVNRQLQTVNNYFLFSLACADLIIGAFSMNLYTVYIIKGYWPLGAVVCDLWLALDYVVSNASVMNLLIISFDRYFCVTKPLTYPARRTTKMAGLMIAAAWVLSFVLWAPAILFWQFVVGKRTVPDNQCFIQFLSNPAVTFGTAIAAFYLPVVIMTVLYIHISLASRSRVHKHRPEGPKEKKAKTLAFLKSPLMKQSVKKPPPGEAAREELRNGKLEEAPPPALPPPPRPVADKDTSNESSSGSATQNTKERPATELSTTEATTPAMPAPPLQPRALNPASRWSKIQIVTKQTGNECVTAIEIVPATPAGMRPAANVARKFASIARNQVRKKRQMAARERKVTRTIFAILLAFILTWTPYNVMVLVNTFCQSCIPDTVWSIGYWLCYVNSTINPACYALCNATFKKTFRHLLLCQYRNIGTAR

[2] = molecular target: Muscarinic acetylcholine receptor M4 (rat); assay: Positive allosteric modulation of rat M4 receptor expressed in CHO cells co-expressing Gqi5 assessed as increase in acetylcholine-induced calcium mobilization incubated with EC20 ACh for 140 secs and subsequent EC80 Ach addition further incubated for 120 secs by Fluo-4-AM dye based fluorescence assay

| EC50 [1] [nM] | EC50 [2] [nM] | Structure (SMILES) |
| --- | --- | --- |
| 3360 | – | Cc1nnc2ccc(C(=O)NC3CN(c4cccc(C(F)(F)F)n4)C3)cc2c1C |
| 668 | – | Cc1nnc2ccc(C(=O)NC3CN(c4cccc(F)n4)C3)cc2c1C |
| 304 | 138 | Cc1nnc2ccc(C(=O)NC3CN(c4ncc(C#N)cc4Cl)C3)cc2c1C |
| > 10000 | – | Cc1nnc2ccc(C(=O)NC3CN(c4ncc(C(F)(F)F)cn4)C3)cc2c1C |
| 3200 | – | Cc1nnc2ccc(C(=O)NC3CN(c4ncc(OC(C)C)cn4)C3)cc2c1C |
| 1030 | – | Cc1nnc2ccc(C(=O)NC3CN(c4ccc(C#N)cn4)C3)cc2c1C |
| 1390 | – | Cc1nnc2ccc(C(=O)NC3CN(c4ncc(C5CC5)cc4Cl)C3)cc2c1C |
| 2630 | – | Cc1nnc2ccc(C(=O)NC3CN(c4ncc(C(F)(F)F)cc4Cl)C3)cc2c1C |
| 1320 | – | Cc1nnc2ccc(C(=O)NC3CN(c4cccc(Cl)n4)C3)cc2c1C |
| 1220 | – | Cc1nnc2ccc(C(=O)NC3CN(c4ncccc4F)C3)cc2c1C |
| 464 | 174 | Cc1nnc2ccc(C(=O)NC3CN(c4ncc(F)cc4Cl)C3)cc2c1C |
| 373 | 356 | COc1cc(N2CC(NC(=O)c3ccc4nnc(C)c(C)c4c3)C2)c(Cl)cn1 |
| 1270 | – | Cc1nnc2ccc(C(=O)NC3CN(c4ccc(Cl)cn4)C3)cc2c1C |
| 952 | – | Cc1nnc2ccc(C(=O)NC3CN(c4ncccc4Cl)C3)cc2c1C |
| 116 | 230 | Cc1nnc2ccc(C(=O)NC3CN(c4cc(Cl)ncc4Cl)C3)cc2c1C |
| 737 | – | Cc1nnc2ccc(C(=O)NC3CN(c4ccc(F)c(F)c4)C3)cc2c1C |
| 648 | 82 | Cc1nnc2ccc(C(=O)NC3CN(c4ncc(Cl)cc4F)C3)cc2c1C |
| 2510 | – | Cc1nnc2ccc(C(=O)NC3CN(c4cnc(C5CC5)cn4)C3)cc2c1C |
| 1460 | – | Cc1nnc2ccc(C(=O)NC3CN(c4ccc(OC(F)F)nc4)C3)cc2c1C |
